# Laboratory results as given in US6737383B1, “Herbicidal oxadiazolidines” (priority 1999, dated 2004).
# Assays:
# wheat = assay: Test B pre/postemergence wheat; type: in vivo, Triticum aestivum
# Procedure, shortened: (§1)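 Response is a visual 0-to-10 score relative to untreated plants, where 0 means no effect and 10 means complete control, taken twelve to sixteen days after application. Treatments went onto soil at planting and onto foliage of 1- to 4-leaf plants, using a surfactant-containing non-phytotoxic solvent.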
# surinam grass = assay: Test B pre/postemergence surinam grass; type: in vivo, Brachiaria decumbens
# Procedure, shortened: as §1
# purple nutsedge = assay: Test B pre/postemergence purple nutsedge; type: in vivo, Cyperus rotundus
# Procedure, shortened: as §1
# blackgrass = assay: Test B pre/postemergence blackgrass; type: in vivo, Alopecurus myosuroides
# Procedure, shortened: as §1
# pigweed = assay: Test B pre/postemergence pigweed; type: in vivo, Amaranthus retroflexus
# Procedure, shortened: as §1
# sugar beet = assay: Test B pre/postemergence sugar beet; type: in vivo, Beta vulgaris
# Procedure, shortened: as §1
# crabgrass = assay: Test B pre/postemergence crabgrass; type: in vivo, Digitaria sanguinalis
# Procedure, shortened: as §1
# velvetleaf = assay: Test B pre/postemergence velvetleaf; type: in vivo, Abutilon theophrasti
# Procedure, shortened: as §1
# corn = assay: Test B pre/postemergence corn; type: in vivo, Zea mays
# Procedure, shortened: as §1
# soybean = assay: Test B pre/postemergence soybean; type: in vivo, Glycine max
# Procedure, shortened: as §1
# giant foxtail = assay: Test B pre/postemergence giant foxtail; type: in vivo, Setaria faberii
# Procedure, shortened: as §1
# morningglory = assay: Test B pre/postemergence morningglory; type: in vivo, Ipomoea hederacea
# Procedure, shortened: as §1
# rape = assay: Test B pre/postemergence rape; type: in vivo, Brassica napus
# Procedure, shortened: as §1
# bedstraw = assay: Test B pre/postemergence bedstraw; type: in vivo, Galium aparine; settings: Preemergence; for Bedstraw plant response rating: scale 0 to 10, 0 is no effect, 10 is complete control
# Procedure, shortened: as §1
# wild oat = assay: Test B pre/postemergence wild oat; type: in vivo, Avena fatua
# Procedure, shortened: as §1
# cocklebur = assay: Test B pre/postemergence cocklebur; type: in vivo, Xanthium strumarium
# Procedure, shortened: as §1
# [1] = Postemergence, Rate 62 g/ha, scale of 0 to 10, 0 is no effect, 10 is complete control
# [2] = Postemergence, Rate 125 g/ha, scale 0 to 10, 0 is no effect, 10 is complete control
# [3] = Postemergence, Rate 500 g/ha, scale 0 to 10, 0 is no effect, 10 is complete control
# [4] = Preemergence, Rate 62 g/ha, scale of 0 to 10 where 0 is no effect and 10 is complete control
# [5] = Preemergence, Rate 125 g/ha, scale 0 to 10, 0 is no effect, 10 is complete control
# [6] = Preemergence, Rate 500 g/ha, scale of 0 to 10 where 0 is no effect and 10 is complete control
# [7] = Preemergence, Rate 250 g/ha, scale 0 to 10, 0 is no effect, 10 is complete control
# [8] = Postemergence, Rate 250 g/ha, scale 0 to 10
compound,measurement,setting,value
C=CCCCn1c(=O)on(C(=O)N(c2ccc(F)cc2F)C(C)C)c1=O [Compound 516],Wheat plant response rating,wheat; [1],0
same,Wheat plant response rating,wheat; [2],1
same,"Plant response rating, Wheat",wheat; [3],7
same,"Plant response rating, Wheat",wheat; [4],0
same,Wheat plant response rating,wheat; [5],0
same,Wheat plant response rating,wheat; [6],5
same,B. signalgrass plant response rating,surinam grass; [1],0
same,B. signalgrass plant response rating,surinam grass; [2],0
same,B. signalgrass plant response rating,"surinam grass; Postemergence, Rate 250 g/ha, scale 0 to 10, 0 no effect, 10 complete control",3
same,"Plant response rating, B. signalgrass",surinam grass; [3],5
same,"Plant response rating, B. signalgrass",surinam grass; [4],1
same,B. signalgrass plant response rating,surinam grass; [5],5
same,B. signalgrass plant response rating,surinam grass; [7],9
same,B. signalgrass plant response rating,"surinam grass; Preemergence, Rate 500 g/ha, scale 0 to 10, 0 is no effect, 10 is complete control",10
same,Nutsedge plant response rating,purple nutsedge; [1],0
same,Nutsedge plant response rating,purple nutsedge; [2],0
same,"Plant response rating, Nutsedge",purple nutsedge; [4],0
same,Nutsedge plant response rating,purple nutsedge; [5],0
same,Nutsedge plant response rating,purple nutsedge; [6],0
same,Blackgrass plant response rating,blackgrass; [1],0
same,Blackgrass plant response rating,blackgrass; [2],4
same,Blackgrass plant response rating,blackgrass; [8],7
same,"Plant response rating, Blackgrass",blackgrass; [3],7
same,"Plant response rating, Blackgrass",blackgrass; [4],3
same,Blackgrass plant response rating,blackgrass; [5],5
same,Blackgrass plant response rating,blackgrass; [7],8
same,Blackgrass plant response rating,blackgrass; [6],10
same,Redroot pigweed plant response rating,pigweed; [1],4
same,"Plant response rating, Redroot pigweed",pigweed; [3],8
same,"Plant response rating, Redroot pigweed",pigweed; [4],7
same,Redroot pigweed plant response rating,pigweed; [6],10
same,Sugarbeets plant response rating,sugar beet; [1],0
same,Sugarbeets plant response rating,sugar beet; [2],0
same,"Plant response rating, Sugarbeets",sugar beet; [3],8
same,"Plant response rating, Sugarbeets",sugar beet; [4],1
same,Sugarbeets plant response rating,sugar beet; [5],3
same,Sugarbeets plant response rating,sugar beet; [6],7
same,Crabgrass plant response rating,crabgrass; [1],3
same,Crabgrass plant response rating,crabgrass; [2],9
same,"Plant response rating, Crabgrass",crabgrass; [3],9
same,"Plant response rating, Crabgrass",crabgrass; [4],6
same,Crabgrass plant response rating,crabgrass; [5],9
same,Crabgrass plant response rating,crabgrass; [6],10
same,Velvetleaf plant response rating,velvetleaf; [1],3
same,Velvetleaf plant response rating,velvetleaf; [2],4
same,"Plant response rating, Velvetleaf",velvetleaf; [3],4
same,"Plant response rating, Velvetleaf",velvetleaf; [4],0
same,Velvetleaf plant response rating,velvetleaf; [6],7
same,Corn plant response rating,corn; [1],0
same,Corn plant response rating,corn; [2],0
same,Corn plant response rating,corn; [8],0
same,"Plant response rating, Corn",corn; [3],0
same,"Plant response rating, Corn",corn; [4],0
same,Corn plant response rating,corn; [5],0
same,Corn plant response rating,corn; [6],0
same,Soybean plant response rating,soybean; [1],4
same,Soybean plant response rating,soybean; [2],4
same,"Plant response rating, Soybean",soybean; [3],7
same,"Plant response rating, Soybean",soybean; [4],0
same,Soybean plant response rating,soybean; [5],0
same,Soybean plant response rating,soybean; [6],0
same,Giant foxtail plant response rating,giant foxtail; [1],0
same,Giant foxtail plant response rating,giant foxtail; [2],5
same,"Plant response rating, Giant foxtail",giant foxtail; [3],9
same,"Plant response rating, Giant foxtail",giant foxtail; [4],10
same,Giant foxtail plant response rating,giant foxtail; [5],10
same,Giant foxtail plant response rating,giant foxtail; [6],10
same,Morningglory plant response rating,morningglory; [1],2
same,Morningglory plant response rating,morningglory; [2],3
same,"Plant response rating, Morningglory",morningglory; [3],7
same,"Plant response rating, Morningglory",morningglory; [4],0
same,Morningglory plant response rating,morningglory; [5],0
same,Morningglory plant response rating,morningglory; [6],0
same,Rape plant response rating,rape; [1],1
same,Rape plant response rating,rape; [2],4
same,"Plant response rating, Rape",rape; [3],9
same,"Plant response rating, Rape",rape; [4],0
same,Rape plant response rating,rape; [5],1
same,Rape plant response rating,rape; [6],9
same,"Plant response rating, Bedstraw","bedstraw; Rate 62 g/ha, scale of 0 to 10 where 0 is no effect and 10 is complete control",0
same,Bedstraw plant response rating,bedstraw; Rate 125 g/ha,0
same,Bedstraw plant response rating,bedstraw; Rate 250 g/ha,1
same,Bedstraw plant response rating,bedstraw; Rate 500 g/ha,7
same,Wild oats plant response rating,wild oat; [1],0
same,Wild oats plant response rating,wild oat; [2],2
same,"Plant response rating, Wild oats",wild oat; [3],5
same,"Plant response rating, Wild oats",wild oat; [4],0
same,Wild oats plant response rating,wild oat; [5],5
same,Wild oats plant response rating,wild oat; [6],9
same,Cocklebur plant response rating,cocklebur; [1],2
same,Cocklebur plant response rating,cocklebur; [2],3
same,Cocklebur plant response rating,cocklebur; [8],3
same,"Plant response rating, Cocklebur",cocklebur; [3],5
same,"Plant response rating, Cocklebur",cocklebur; [4],0
same,Cocklebur plant response rating,cocklebur; [5],0
same,Cocklebur plant response rating,cocklebur; [7],0
same,Cocklebur plant response rating,cocklebur; [6],0
